Data as given in patent US6908927B2, “Pyridopyranoazepine derivatives, their preparation and their therapeutic application” (Sanofi-Synthelabo, priority 1999, dated 2005).
Structures can show the parent of a compound that is named as a salt.

- melting point: 170 °C (dec.)
SMILES: CCC1c2ncccc2OC2CCN3CCC21C3 (racemic) (as salt: HBr)
